Reference: patent publication US20170209408A1, “HSP90 INHIBITORS FOR THE TREATMENT OF OBESITY AND METHODS OF USE THEREOF” (The Children's Medical Center Corporation, priority 2014, published 2017)
Entries after “also recorded” stand apart in the source; their conditions may differ.

Legend:
[1] = rating from cited sources, cited from earlier work
[2] = system: HFD-fed obese mice; assay: Body weight and food intake in high fat diet (HFD)-fed obese mice, daily i.p. injection; type: in vivo, C57Bl/6J mice; details: three weeks, vs DMSO vehicle
Experimental: To investigate whether gambogic acid can act as an anti-obesity drug by increasing leptin sensitivity and reducing appetite, C57Bl/6J mice were placed on a high fat diet (HFD; Research Diets, D12451, 45 kcal % fat) feeding for 16 weeks. After establishment of obesity and leptin resistance, mice were administered gambogic acid (at 0.5 mg/kg, in 25 μl DMSO, once per day) and vehicle (DMSO, 25 μl) with intraperitoneal (i.p.) injection. The animals had free access to food and water unless otherwise stated. In all experiments, three days prior to drug administration, the animals went through an acclimation period where they were given DMSO (25 μl) to reduce the effect of stress created by i.p. injection. Following three days acclimation, mice were administered gambogic acid daily i.p. injections at 0.5 mg/kg for three weeks in 25 μl of DMSO as vehicle, whereas the control group received the same volume of DMSO. […] To investigate whether tanespimycin can act as an anti-obesity drug by increasing leptin sensitivity and reducing appetite, C57Bl/6J mice were placed on a high fat diet (HFD; Research Diets, D12451, 45 kcal % fat) feeding for 16 weeks. After establishment of obesity and leptin resistance, mice were administered tanespimycin (at 15 mg/kg, in 25 μl DMSO, once per day) and vehicle (DMSO, 25 μl) with intraperitoneal (i.p.) injection. The animals had free access to food and water unless otherwise stated. In all experiments, three days prior to drug administration, the animals went through an acclimation period where they were given DMSO (25 μ1) to reduce the effect of stress created by i.p. injection. Following three days acclimation, mice were administered tanespimycin daily i.p. injections at 15 mg/kg for three weeks in 25 μl of DMSO as vehicle, whereas the control group received the same volume of DMSO. […] To investigate whether NVP-AUY922 can act as an anti-obesity drug by increasing leptin sensitivity and reducing appetite, C57Bl/6J mice were placed on a high fat diet (HFD; Research Diets, D12451, 45 kcal % fat) feeding for 16 weeks. After establishment of obesity and leptin resistance, mice were administered NVP-AUY922 (at 15 mg/kg, in 25 μl DMSO, once per day) and vehicle (DMSO, 25 μl) with intraperitoneal (i.p.) injection. The animals had free access to food and water unless otherwise stated. In all experiments, three days prior to drug administration, the animals went through an acclimation period where they were given DMSO (25 μ1) to reduce the effect of stress created by i.p. injection. Following three days acclimation, mice were administered NVP-AUY922 daily i.p. injections at 15 mg/kg for three weeks in 25 μl of DMSO as vehicle, whereas the control group received the same volume of DMSO.

[3] = system: lean mice; assay: Body weight and food intake in 10-week old lean mice on chow diet, i.p. injection; type: in vivo; details: three weeks
Experimental: Gambogic acid was administered to 10-week old lean mice on chow diet at 0.5 mg/kg for three weeks by i.p. injections. […] Tanespimycin was administered to 10-week old lean mice on chow diet at 15 mg/kg for three weeks by i.p. injections. […] NVP-AUY922 was administered to 10-week old lean mice on chow diet at 15 mg/kg for three weeks by i.p. injections.

[4] = system: leptin receptor deficient (db/db) mice; assay: Body weight and food intake in leptin receptor deficient (db/db) mice; type: in vivo; details: 0.5 mg/kg once a day
Experimental: To explore whether gambogic acid's effect is leptin dependent, gambogic acid (0.5 mg/kg, once a day, in 25μ1 DMSO) was administered to leptin receptor deficient (db/db) mice.

[5] = 0.5 mg/kg i.p. once per day, 0.5 mg/kg

[Cr] [Chromium]
Safety [1]: Likely safe

CCNC(=O)c1noc(-c2cc(C(C)C)c(O)cc2O)c1-c1ccc(CN2CCOCC2)cc1 [NVP-AUY922]
body weight ([2]; 15 mg/kg i.p. once per day): significantly decreased | food intake ([3]; 15 mg/kg i.p.): failed to induce bodyweight loss or food intake | body weight ([3]; 15 mg/kg i.p., 15 mg/kg): little or no decrease; also recorded: failed to induce bodyweight loss

CC(C)=CCC[C@]1(C)C=Cc2c(O)c3c(c(CC=C(C)C)c2O1)O[C@]12C(=C[C@@H]4C[C@H]1C(C)(C)O[C@@]2(C/C=C(/C)C(=O)O)C4=O)C3=O [gambogic acid]
body weight [2, 5]: significantly decreased; also recorded: decreased body weight | food intake [2, 5]: significantly decreased | food intake ([2]; 0.5 mg/kg i.p. once per day, listed as SR-03, 0.5 mg/kg): significant decrease | body weight ([3]; 0.5 mg/kg i.p., 0.5 mg/kg): little or no decrease; also recorded: failed to induce bodyweight loss | food intake ([3]; 0.5 mg/kg i.p., 0.5 mg/kg): failed to induce bodyweight loss or food intake | food intake ([3]; 0.5 mg/kg i.p., listed as SR-03, 0.5 mg/kg): little or no effect | food intake [4]: continued to increase similar to the vehicle treated group | body weight ([4]; 0.5 mg/kg): continued to increase similar to the vehicle treated group; also recorded: not in db/db mice

Conjugated linoleic acid
Safety [1]: Possibly safe | Effectiveness ([1]; weight loss): Possibly effective
